Molecular target: T1, DREADDs receptors on PVN OXT neurons (Homo sapiens, UniProt P20309, A239G/Y149C)
T1 construct: mCherry (C); host or cells: PVN oxytocin neurons of Sprague-Dawley rats, in vivo, transduced with AAV2-hSyn-DIO-hM3D(Gq)-mCherry and rAAV1-OXT-Cre
Assay: MAP over 21 days of CIH/H exposure with daily PVN OXT neuron activation (daily CNO)
Type: in vivo, Sprague-Dawley rats
Conditions: n=8
From the text: To record blood pressure and heart rate, male Sprague-Dawley rats, 3-4 weeks of age, were anesthetized using isoflurane (2-4%) and a HD-XII pressure transmitter was implanted (Data Sciences International, St Paul, Minn., USA) with its cathether inserted into the abdominal aorta to record pressure and EKG leads were attached subcutaneously to obtain EKG recordings and heart rate. All rats with telemetry devices were allowed 7-14 days to recover from transmitter implantation surgery before any measurements were recorded. Blood pressure and heart rate were recorded via radio-frequency signals obtained through the Ponemah data acquisition system (Data Sciences International). Baseline recordings of blood pressure and heart rate were obtained for 3 days prior to CIH/H exposure. Prior to, and during, the 28 day CIH/H exposure period daily baseline recordings of blood pressure and heart rate were recorded.
Animals were exposed to repetitive cycles of 3 minutes of mild H/H (6% O2+5% CO2+89%, N2) followed by 3 minutes of normoxia (21% O2+79% N2), repeated for 10 times per hour, 8 hr/day, for 3 or 4 weeks. The animals were exposed to CIH/H for 8 hours during light phase and to normal air during the remaining 16 hr. Unexposed animals that were exposed to normal air (21% O2+79% N2), were placed adjacent to the chambers during the exposure period to undergo similar handling, general lab conditions, and background noise as the CIH/H group.
1-2 weeks after telemetry implantation, DREADDs receptors on PVN OXT neurons were activated daily by intraperitoneal (IP) injection of clozapine-n-oxide (CNO, 1.0 mg/kg). To investigate the effects of CNO on resting BP and HR in both DREADDs-expressing and sham animals, 3 days prior to CIH/H exposure (control days) baseline BP and HR values were recorded for a 20 min period before CNO injection. Animals from each group then received an IP injection of CNO, BP and HR were recorded for 1 hr, and the animals then underwent exposure to air for 8 hr to achieve acclimation to the chambers. During the 21 days of CIH/H exposure, baseline recordings of BP and HR were obtained before CNO injection, recorded for 1 hr post CNO injection, and for the entire duration of OHM exposure.
To examine the effects of CNO on and the chronic changes to mean arterial blood pressure (MAP) over the 21 days of OHM exposure, values were recorded before and after CNO injection on control days prior to CIH exposures, and days 1, 3, 6, 9, 12, 15, 18, and 21 of CIH/H. Changes within the DREADDs-expressing animals and the sham animals were statistically analyzed by one-way ANOVA with repeated-measures followed by Bonferroni's multiple comparison test. […]

T1 sequence (P20309 whole entry Y149C/A239G, the tested form may be a part): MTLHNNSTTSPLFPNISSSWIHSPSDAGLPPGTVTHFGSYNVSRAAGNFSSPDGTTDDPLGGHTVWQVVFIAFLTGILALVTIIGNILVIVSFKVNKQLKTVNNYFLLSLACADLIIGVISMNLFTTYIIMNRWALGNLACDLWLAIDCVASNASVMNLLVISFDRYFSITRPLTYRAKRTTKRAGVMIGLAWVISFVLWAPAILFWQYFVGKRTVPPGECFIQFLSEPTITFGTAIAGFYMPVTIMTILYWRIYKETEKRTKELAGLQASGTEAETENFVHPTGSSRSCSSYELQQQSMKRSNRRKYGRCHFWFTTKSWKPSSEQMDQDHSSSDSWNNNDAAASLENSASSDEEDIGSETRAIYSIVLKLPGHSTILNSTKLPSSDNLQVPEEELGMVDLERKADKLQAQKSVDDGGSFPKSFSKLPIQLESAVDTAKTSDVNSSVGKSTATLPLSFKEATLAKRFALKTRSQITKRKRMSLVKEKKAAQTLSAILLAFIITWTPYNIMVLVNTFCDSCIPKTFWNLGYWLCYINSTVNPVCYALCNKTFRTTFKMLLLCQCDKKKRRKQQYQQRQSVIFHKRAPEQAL

Compound: C[N+]1([O-])CCN(C2=Nc3cc(Cl)ccc3Nc3ccccc32)CC1 [CNO, clozapine-n-oxide]
- MAP in DREADDs-expressing group, Day 12 (Day 12 of CIH/H, sham group 117±4.1 mmHg): 105±2.6 mmHg
- MAP in DREADDs-expressing group, Day 15 (Day 15 of CIH/H, sham group 118±2.6 mmHg): 105±3.1 mmHg
- MAP in DREADDs-expressing group, Day 18 (Day 18 of CIH/H, sham group 122±1.1 mmHg): 104±2.9 mmHg
- MAP in DREADDs-expressing group, Day 21 (Day 21 of CIH/H, 104±2.6 mmHg on control days, sham group 120±0.5 mmHg): 103±3.0 mmHg

Source: patent US10842845B2, “Oxytocin improves treatment of obstructive sleep apnea” (THE GEORGE WASHINGTON UNIVERSITY, priority 2014, dated 2020)
